In patent publication US12202840B2, “Compounds for the treatment or alleviation of disorders associated with Tau aggregates” (AC Immune SA, priority 2018, dated 2025):

Experiments:
Format in all cases: in vivo
[1] = test system: rTg4510 mice; test: Morris Water Maze behavioral test, study of Example 1 and Example 12; conditions: once daily by gavage 12.5 weeks, Example 1 at 7 and 20 mg/kg, Example 12 at 20 mg/kg, vs vehicle treated rTg4510, FIG. 1
Description: (§1) Double transgenic rTg4510 mice are an aggressive Tauopathy model expressing the full-length human Tau carrying the P301L mutation (Tau4R0N-P301L) under the control of the tetracycline-inducible CaMKII promoter (Ramsden et al., J. Neurosci., 2005⋅25(46):10637-10647). Wild-type animals and single transgenic mice expressing only the tetracycline-controlled transactivator (tTA) were used as genotype controls. The study comprised 6 treatment groups (n=20 mice/group) with the following group distribution (see Table 5). Compounds or vehicle control were administered once daily by gavage for 12.5 weeks starting at the age of 5.5 weeks. The Morris Water Maze (MWM) behavioral test was performed after 12.5 weeks of treatment over 5 consecutive days. During MWM testing daily dosing was continued. Behavioral testing (MWM) was performed only on female mice (around n=11 female/group). […]
The MWM was performed in a circular tank, measuring 48″ in diameter. […] Trials were video recorded and analyzed by a computer program (WaterMaze; Actimetrics, Wilmette, Ill.). […] Percent time spent in each quadrant (target, left and right adjacent, and opposite) were calculated for probe trials. […] Data were analyzed by 2-way ANOVA followed by post-hoc comparisons and shown statistics refers to differences compared to vehicle treated rTg4510 mice.

[2] = test system: rTg4510 mice; test: Cortex size (cortical atrophy), study of Example 1 and Example 12; conditions: once daily by gavage 12.5 weeks, Example 1 at 7 and 20 mg/kg, Example 12 at 20 mg/kg, vs vehicle treated rTg4510, FIG. 2A
Description: as §1, with “weeks.” for “weeks. The Morris Water Maze (MWM) behavioral test was performed after 12.5 weeks of treatment over 5 consecutive days. During MWM testing daily dosing was continued. Behavioral testing (MWM) was performed only on female mice (around n=11 female/group).”
(§2) After behavioral testing, mice were deeply anesthetized by standard injectable anesthesia and transcardially perfused with cold PBS. […] Sections from 7 mice per group, excluding wild-type animals, were collected from around 10 mediolateral levels starting 0.2 mm lateral from midline, mounted on slides, and used to quantify the cortex size. […] To reduce auto-fluorescence of the tissue, sections were incubated with a solution of 0.1% Sudan Black (Sigma) in 70% ethanol for 15 minutes at room temperature, then washed four times 5 minutes in PBS, and mounted using ProLong Gold Antifade reagent (Invitrogen). Staining was visualized on the Nikon Eclipse Ti microscope, imaged using Nikon DS-Fi2 camera, and quantified using the NIS-Element AR4.13.1 software. […]

[3] = molecular target: T1, misfolded Tau (MC1) (Homo sapiens, UniProt P10636, P618L); test: Misfolded Tau by MC1 histology, study of Example 1 and Example 12; conditions: rTg4510 mice, once daily by gavage 12.5 weeks; Example 1 at 7 and 20 mg/kg, Example 12 at 20 mg/kg; vs vehicle treated rTg4510; FIG. 2B
T1 construct: expressing the full-length human Tau carrying the P301L mutation (Tau4R0N-P301L); from tissue; host or cells: brain (cortex) of double transgenic rTg4510 mice
Description: as §1, with “weeks.” for “weeks. The Morris Water Maze (MWM) behavioral test was performed after 12.5 weeks of treatment over 5 consecutive days. During MWM testing daily dosing was continued. Behavioral testing (MWM) was performed only on female mice (around n=11 female/group).”
as §2

[4] = test system: CD68 positive microglia; test: CD68 histology (neuroinflammation), study of Example 1 and Example 12; conditions: rTg4510 mice, once daily by gavage 12.5 weeks; Example 1 at 7 and 20 mg/kg, Example 12 at 20 mg/kg; vs vehicle treated rTg4510; FIG. 3
Description: Double transgenic rTg4510 mice are an aggressive Tauopathy model expressing the full-length human Tau carrying the P301L mutation (Tau4R0N-P301L) under the control of the tetracycline-inducible CaMKII promoter (Ramsden et al., J. Neurosci., 2005⋅25(46):10637-10647). Wild-type animals and single transgenic mice expressing only the tetracycline-controlled transactivator (tTA) were used as genotype controls. The study comprised 6 treatment groups (n=20 mice/group) with the following group distribution (see Table 5). Compounds or vehicle control were administered once daily by gavage for 12.5 weeks starting at the age of 5.5 weeks. The Morris Water Maze (MWM) behavioral test was performed after 12.5 weeks of treatment over 5 consecutive days. During MWM testing daily dosing was continued. Behavioral testing (MWM) was performed only on female mice (around n=11 female/group). Measurements of cortical atrophy and histology for misfolded Tau (MC1) and CD68 were performed on 7 animals/group excluding wild-type animals.
A systematic random set of sections for five sagittal sections per animal (a total of 175 sections) was used for CD68 histological staining. […] Data were analyzed by 1-way ANOVA followed by post-hoc comparisons and shown statistics refers to differences compared to vehicle treated rTg4510 mice.

T1 sequence (P10636 1-383 isoform P10636-6 P243L): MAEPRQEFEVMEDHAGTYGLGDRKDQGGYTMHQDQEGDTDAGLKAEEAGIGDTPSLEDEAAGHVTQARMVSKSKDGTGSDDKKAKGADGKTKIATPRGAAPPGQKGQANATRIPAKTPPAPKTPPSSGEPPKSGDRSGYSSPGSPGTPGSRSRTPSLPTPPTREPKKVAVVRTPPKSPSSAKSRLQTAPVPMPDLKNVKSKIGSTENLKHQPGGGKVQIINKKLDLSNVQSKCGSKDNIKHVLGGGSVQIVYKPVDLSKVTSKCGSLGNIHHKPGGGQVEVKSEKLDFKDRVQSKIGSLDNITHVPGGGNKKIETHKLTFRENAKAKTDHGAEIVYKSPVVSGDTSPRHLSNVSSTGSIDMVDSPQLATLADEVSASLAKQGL

Row | misfolded Tau (MC1 histology) [3] | SMILES | percentage of time spent in the target quadrant (MWM probe trial) [1] | cortex size [2] | CD68 positive microglia [4]
1 | significant decrease | CN(C)[C@@H]1CCc2c(c3ccc(Nc4ccc5nc(N6CCOCC6)sc5c4)nc3n2C)C1 [Example 12] | significant increase | significant increase | significant decrease
2 | dose-dependent decrease | CC(C)N1CCc2c(c3ccc(Nc4ccc5nc(N6CCOCC6)sc5c4)nc3n2C)C1 [Example 1] | dose-dependent increase | dose-dependent increase | decrease
